Data published in patent US7214688B2 (priority 2000, dated 2007).

Molecular target: α7 nAChR subtype (Rattus norvegicus, UniProt Q05941)
Assay type: binding
Conditions: read-out: KD of radioligand (saturation curves, one site model)

Chain of α7 nAChR subtype (Q05941 23-502 limits assumed): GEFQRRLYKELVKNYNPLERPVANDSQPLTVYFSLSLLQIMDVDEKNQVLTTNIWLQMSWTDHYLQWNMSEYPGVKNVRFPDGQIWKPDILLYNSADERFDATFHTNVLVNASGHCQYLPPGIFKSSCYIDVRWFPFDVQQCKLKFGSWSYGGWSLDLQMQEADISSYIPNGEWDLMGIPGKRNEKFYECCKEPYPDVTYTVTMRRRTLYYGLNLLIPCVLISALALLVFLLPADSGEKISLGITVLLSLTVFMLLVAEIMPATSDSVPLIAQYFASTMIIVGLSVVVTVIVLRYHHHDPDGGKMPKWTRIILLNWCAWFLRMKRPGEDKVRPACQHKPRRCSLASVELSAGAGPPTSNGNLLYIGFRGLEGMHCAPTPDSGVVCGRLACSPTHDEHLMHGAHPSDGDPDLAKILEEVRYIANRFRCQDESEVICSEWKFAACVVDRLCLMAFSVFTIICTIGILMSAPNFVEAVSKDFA

125I-α-Bungarotoxin [Example 125I-α-BTX]
Kd: 1.67 nM
